The values that follow come from patent US20100292205A1, “Pyrimidone Compounds As GSK-3 Inhibitors” (PFIZER INC., priority 2006, published 2010).

Like-named read-outs stand apart in the source and are kept apart here.

The target in this test is T1, Recombinant human GSK3β (Homo sapiens, UniProt P49841).
T1 construct: His-tag; made in house; host or cells: Sf9 insect cells / baculovirus
In words: GSK-3β (Glycogen Synthase Kinase) cell free enzyme assay. The settings on record: for IC50: cell free enzyme assay; for inhibition at 1 µM: read-out: Percent inhibition at 1 μM. Format: biochemical. The procedure, abridged:
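This cell-free kinase assay measured [33P] transfer from [33P]ATP gamma phosphate into the biotinylated peptide bio-LC-S-R-H-S-S-P-H-Q-pS-E-D-E-E-E-OH. After 60 min at RT, reactions were stopped with 0.66 volume of PBS lacking Ca or Mg containing 12.5 mM EDTA, 0.25% Triton-X 100, 125 uM ATP and 6.2 mg/ml streptavidin SPA beads. Bead-bound radioactivity was counted as CPM on a Trilux scintillation counter.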

Setting [1] is: GSK-3β cell free enzyme assay, Examples 42-60.

T1 sequence (P49841 whole entry): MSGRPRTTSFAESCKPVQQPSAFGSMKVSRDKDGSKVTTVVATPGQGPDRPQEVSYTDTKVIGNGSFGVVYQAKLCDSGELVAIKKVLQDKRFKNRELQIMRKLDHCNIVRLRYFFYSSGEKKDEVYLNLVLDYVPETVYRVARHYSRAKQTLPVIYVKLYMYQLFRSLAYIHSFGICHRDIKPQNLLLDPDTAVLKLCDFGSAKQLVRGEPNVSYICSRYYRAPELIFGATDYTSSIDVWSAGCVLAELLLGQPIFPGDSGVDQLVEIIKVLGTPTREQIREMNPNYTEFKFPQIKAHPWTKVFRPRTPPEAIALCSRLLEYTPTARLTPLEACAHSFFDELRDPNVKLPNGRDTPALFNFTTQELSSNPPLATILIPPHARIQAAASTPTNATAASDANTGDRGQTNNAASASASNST

`Cn1c(N[C@@H]2CN(C(=O)c3ccccc3)C[C@@H]2F)nc(-c2ccncc2)cc1=O` [Example 68, 2-{[(3R,4S)-1-Benzoyl-4-fluoropyrrolidin-3-yl]amino}-3-methyl-6-pyridin-4-ylpyrimidin-4(3H)-one]: the IC50 (Examples 62-155) worked out at 0.056 µM.
On to `Cc1cc(C(=O)N2C[C@@H]3[C@H](C2)[C@H]3N(C)c2nc(-c3ccncc3F)cc(=O)n2C)c(C)o1` [Example 147, 2-{[(1R,5S,6s)-3-(2,5-Dimethyl-3-furoyl)-3-azabicyclo[3.1.0]hex-6-yl](methyl)amino}-6-(3-fluoropyridin-4-yl)-3-methylpyrimidin-4(3H)-one], for which, for the setting “Examples 62-155”, the IC50 is 0.0037 µM.
`COC(=O)N1C[C@H]2CCN(c3nc(-c4ccncc4)cc(=O)n3C)[C@H]2C1` [Example 203, Methyl (3a,R6,aR)-1-(1-methyl-6-oxo-4-pyridin-4-yl-16-dihydropyrimidin-2-yl)hexahydropyrrolo[34-b]pyrrole-5(1H)-carboxylate]: the inhibition at 1 µM (Examples 201-221) stood at 32%.
For the molecule `CN(c1nc(-c2ccncn2)cc(=O)n1C)[C@@H]1CCCN(C(=O)C2CC2)C1` [Example 234, 2-{[(3R)-1-(Cyclopropylcarbonyl)piperi-din-3-yl](methyl)amino}-1-methyl-4,4′-bipyrimidin-6(1H)-one], the half-inhibitory concentration (IC50) (Examples 222-234) came to 0.00168 µM.
In the case of `CN(c1nc(-c2ccncc2)cc(=O)n1C)C1CCN(S(=O)(=O)Cc2ccccc2)C1` (stereo not shown) [Example 194, 2-{[1-(Benzylsulfonyl)pyrrolidin-3-yl](methyl)amino}-3-methyl-6-pyridin-4-ylpyrimidin-4(3H)-one], for the setting “Examples 157-199”, the inhibition at 1 µM stood at 90%.
For the molecule `Cn1c(N2[C@@H]3CC[C@H]2CN(C(=O)OC(C)(C)C)C3)nc(-c2ccncc2)cc1=O` [Example 12, tert-butyl (1R,5S)-8-(1-Methyl-6-oxo-4-pyridin-4-yl-1,6-dihydropyrimidin-2-yl)-3,8-diazabicyclo[3.2.1] octane-3-carboxylate], the half-maximal inhibitory concentration (IC50) (Examples 1-35) was found to be 0.0324 µM.
In the case of `CCOC(=O)c1cccc(-n2nnnc2N2C[C@@H]3[C@H](C2)[C@H]3N(C)c2nc(-c3ccncc3F)cc(=O)n2C)c1` [Example 276, Ethyl 3-{5-[(1R,5S,6s)-6-{[4-(3-fluoropyridin-4-yl)-1-methyl-6-oxo-1,6-dihydropyrimidin-2-yl](methyl)amino}-3-azabicyclo[3.1.0]hex-3-yl]-1H-tetrazol-1-yl}benzoate], the IC50 (Examples 265-291) is 0.00621 µM.
`Cn1c(NC[C@@H]2CCCN2C(=O)c2ccccc2)nc(-c2ccncc2)cc1=O` [Example 75, 2-({[(2S)-1-Benzoylpyrrolidin-2-yl]methyl}amino)-3-methyl-6-pyridin-4-ylpyrimidin-4(3H)-one]: where the note is “Examples 62-155”, the IC50 amounted to 0.183 µM.
`CC(=O)N1CCC(Nc2nc(-c3ccncc3)cc(=O)n2C)C1` (stereo not shown) [Example 45, 2-[(1-Acetylpyrrolidin-3-yl)amino]-3-methyl-6-pyridin-4-ylpyrimidin-4(3H)-one]: the inhibition at 1 µM under setting [1] turned out to be 39%.
Regarding `CC(=O)N1CCC(Nc2nc(-c3ccncc3)cc(=O)n2C)CC1` [Example 47, 2-[(1-Acetylpiperidin-4-yl)amino]-3-methyl-6-pyridin-4-ylpyrimidin-4(3H)-one], under setting [1], the inhibition at 1 µM is 44%.
As for `Cn1c(NC2CCN(S(=O)(=O)c3ccccc3)CC2)nc(-c2ccncc2)cc1=O` [Example 175, 3-Methyl-2-{[1-(phenylsulfonyl)piperidin-4-yl]amino}-6-pyridin-4-ylpyrimidin-4(3H)-one], the inhibition at 1 µM (Examples 157-199) worked out at 49%.
In the case of `Cn1c(NC2CCCN(C(=O)OC(C)(C)C)C2)nc(-c2ccncc2)cc1=O` (stereo not shown) [Example 19, tert-butyl 3-[(1-Methyl-6-oxo-4-pyridin-4-yl-1,6-dihydropyrimidin-2-yl)amino]piperidine-1-carboxylate], the concentration for half-maximal inhibition (IC50) (Examples 1-35) came out at 0.042 µM.
As to `COC(=O)N1CC(CNc2nc(-c3ccncc3)cc(=O)n2C)C1` [Example 219, Methyl 3-{[(1-methyl-6-oxo-4-pyridin-4-yl-16-dihydropyrimidin-2-yl)amino]methyl}azetidine-1-carboxylate], the inhibition at 1 µM (Examples 201-221) came to 72%.

By IC50 is commonly meant the concentration needed to halve the response being measured. Usually inhibition stands for how much of the control response was suppressed.
